In patent US20260356840A1, “[1,2,4]TRIAZOLO[1,5-A]PYRIMIDINONE WRN INHIBITORS” (Nimbus Wadjet, Inc., priority 2023, published 2026) one finds IC50 data, which are given here for two compounds.

For this test, the target named is T1, human Werner helicase (Uniprot Q14191, amino acids 517-1235 with L1074F point mutation), WRN-BV08 (Homo sapiens, UniProt Q14191, L1074F).
T1 construct: Uniprot Q14191, amino acids 517-1235 with L1074F point mutation; TEV cleavable 8xHis tag (C, cleaved yes); made in house; host or cells: Sf9 insect cells (baculovirus, pFastBac)
Nature of the test: WRN (BV08) ADP-Glo Assay. Type of test: biochemical. (In ADP-Glo the light output rises with the ADP produced.)

T1 sequence (Q14191 517-1235 L1074F): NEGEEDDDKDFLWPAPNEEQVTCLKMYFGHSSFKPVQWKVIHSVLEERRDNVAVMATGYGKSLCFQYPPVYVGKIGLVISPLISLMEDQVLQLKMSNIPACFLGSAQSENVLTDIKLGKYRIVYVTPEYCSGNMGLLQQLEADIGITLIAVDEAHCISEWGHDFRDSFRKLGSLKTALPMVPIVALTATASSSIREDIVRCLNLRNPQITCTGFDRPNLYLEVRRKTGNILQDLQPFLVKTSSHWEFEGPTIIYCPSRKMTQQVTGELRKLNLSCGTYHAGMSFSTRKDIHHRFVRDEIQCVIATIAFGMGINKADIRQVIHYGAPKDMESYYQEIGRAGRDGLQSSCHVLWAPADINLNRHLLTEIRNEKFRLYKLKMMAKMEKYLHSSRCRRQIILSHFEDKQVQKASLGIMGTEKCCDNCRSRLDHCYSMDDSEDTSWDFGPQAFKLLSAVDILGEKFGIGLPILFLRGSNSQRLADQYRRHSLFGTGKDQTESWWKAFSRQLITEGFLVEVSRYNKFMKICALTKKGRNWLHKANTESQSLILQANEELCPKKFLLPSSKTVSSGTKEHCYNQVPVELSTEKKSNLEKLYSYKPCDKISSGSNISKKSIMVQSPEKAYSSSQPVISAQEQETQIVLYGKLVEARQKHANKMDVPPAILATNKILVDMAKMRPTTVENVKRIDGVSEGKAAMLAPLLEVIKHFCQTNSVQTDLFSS

As to `CCc1c(N2CCC3C2CCN3C(=O)c2cnn(C)c2)c(=O)n2nc(C3=CCOCC3)nc2n1CC(=O)Nc1ccc(C(F)(F)F)cc1Cl` (centres unmarked) [Compound I-68, N-[2-chloro-4-(trifluoromethyl)phenyl]-2-[2-(3,6-dihydro-2H-pyran-4-yl)-5-ethyl-6-[4-(1-methyl-1H-pyrazole-4-carbonyl)-octahydropyrrolo[3,2-b]pyrrol-1-yl]-7-oxo-4H,7H-[1,2,4]triazolo[1,5-a]pyrimidin-4-yl]acetamide], the IC50 (as a rule, the point on the concentration scale where inhibition reaches its midpoint) lay in the range of 50 to 100 nM. As for `CCc1c(N2CCN(C(=O)c3cnc(C)cc3O)CC2)c(=O)n2nc(C3=CCOCC3)nc2n1CC(=O)Nc1ccc(C(F)(F)F)cc1Cl` [Compound I-2, N-[2-chloro-4-(trifluoromethyl)phenyl]-2-[2-(3,6-dihydro-2H-pyran-4-yl)-5-ethyl-6-[4-(4-hydroxy-6-methylpyridine-3-carbonyl)piperazin-1-yl]-7-oxo-4H,7H-[1,2,4]triazolo[1,5-a]pyrimidin-4-yl]acetamide], the figure is 5 to 50 nM.
